Test results published in patent publication US20170298056A1, “SMALL MOLECULE INHIBITORS OF HIV-1 ENTRY AND METHODS OF USE THEREOF” (Dana-Farber Cancer Institute, Inc., priority 2014, published 2017).
Where two headings read alike, the source gives them in different places.

Assays:
[1] = tested on: amphotropic murine leukemia virus (A-MLV); assay: Viral infection assay, control virus with A-MLV envelope; format: cell-based
Protocol: (§1) Production of recombinant HIV-1 expressing luciferase. […] After 48 hours, the supernatant was collected, buffered with 50 mM Hepes pH 7.4 (final concentration) and centrifuged for 5 minutes at 750×g and 4° C. The virus-containing supernatant was used directly or frozen at −80° C.
(§2) Viral infection assay. Each test compound was serially diluted in DMSO in a 96-well B&W isoplate (PerkinElmer, Boston, Mass.) using an HP D300 Digital Dispenser, to a final volume of 450 nl. DMSO was used as a control. Viruses pseudotyped with a specific Env were added to each well and incubated briefly at room temperature. Cf2Th-CD4/CCR5 cells were detached with StemPro Accutase Cell Dissociation Reagent (Invitrogen, cat #A11105-01), washed once, and 5000 cells were added to each well. […] Following incubation, the medium was aspirated and cells were lysed with 30 μl of Passive Lysis Buffer (Promega, cat #E1941). The activity of the firefly luciferase, which was used as a reporter protein in the system, was measured with a Centro LB 960 luminometer (Berthold Technologies, Oak Ridge, Tenn.). One hundred microliters of assay buffer (15 mM MgSO4, 15 mM KH2PO4/K2HPO4 pH 7.8, 1 mM ATP and 1 mM DTT) was injected to each well, followed by a 50 μl injection of 1 mM Dluciferin potassium salt (BD Pharmingen, San Jose, Calif.); luminescence was measured for 2 sec. Infection of PBMC was done as above, but 20,000-40,000 cells/well and viruses concentrated by ultracentrifugation were used. After four hours of incubation with viruses, the cells were centrifuged at 200×g for 6 minutes at 4° C., resuspended in 100 μl RPMI-PBMC medium and incubated at 37° C. for an additional 36-40 hours (total 40-44 hours). Supernatant was removed after centrifugation at 400×g for 5 minutes and cells were processed to detect luciferase activity, as described above.
The effect of 18A on viral infection was tested using recombinant HIV-1 pseudotyped with the envelope glycoproteins of different primate immunodeficiency viruses or the amphotropic murine leukemia virus (A-MLV) as a control.

[2] = tested on: HXBc2-YU2 Chimeras (CCR5-tropic); assay: Viral infection assay, HXBc2-YU2 chimeras (CCR5-tropic); format: cell-based, HIV-1
Protocol: as §1
as §2, with “Infection of PBMC was done as above, but 20,000-40,000 cells/well and viruses concentrated by ultracentrifugation were used. After four hours of incubation with viruses, the cells were centrifuged at 200×g for 6 minutes at 4° C., resuspended in 100 μl RPMI-PBMC medium and incubated at 37° C. for an additional 36-40 hours (total 40-44 hours). Supernatant was removed after centrifugation at 400×g for 5 minutes and cells were processed to detect luciferase activity, as described above.” left out

SIVmac239 = assay: Viral infection assay, SIV Env; format: cell-based; settings: virus with SIVmac239 Env
Protocol: as §1
as §2, with “Infection of PBMC was done as above, but 20,000-40,000 cells/well and viruses concentrated by ultracentrifugation were used. After four hours of incubation with viruses, the cells were centrifuged at 200×g for 6 minutes at 4° C., resuspended in 100 μl RPMI-PBMC medium and incubated at 37° C. for an additional 36-40 hours (total 40-44 hours). Supernatant was removed after centrifugation at 400×g for 5 minutes and cells were processed to detect luciferase activity, as described above.” left out

CEM #21 cells = assay: Viability assay, CEM#21 target cells; format: cell-based
Protocol: H-JRFL#1336 (effector) and H-Fluc4 (control) cells were grown in DMEM containing 10% FBS, 100 μg/ml streptomycin, 100 units/ml penicillin, 200 μg/ml G418, 1 μg/ml puromycin and 2 μg/ml doxycycline. H-JRFL#13 cells carry an HIV-1JR-FL env gene that is induced by growing the cells in the absence of doxycycline (Tet-Off expression system). H-Fluc4 cells, which carry a firefly luciferase gene that is induced in the absence of doxycycline, were used as specificity controls. Both cell lines were derived from HeLa cells and constitutively express the tetracycline-regulated transactivator (Tet-Off expression system). CEM#21 target cells were grown in RPMI containing 10% FBS, 100 μg/ml streptomycin, 100 units/ml penicillin and 1 μg/ml puromycin. […]
Viability Assay. […] The plate was equilibrated to room temperature, 15 μl of CellTiterGlo (Promega) was added to each well and luminescence was measured as described above. […] 30 μl (Cf2Th cells) or 100 μl (PBMC) of CellTiterGlo was added and luminescence was measured as described above.

HIV-1HXBc2 = assay: Cold inactivation of recombinant virus; format: cell-based; settings: in the presence of 18A vs DMSO or unrelated compounds
Protocol: For washout experiments, different concentrations of 18A were incubated with the recombinant viruses at 37° C. for 20 minutes. The viruses were laid on a 20% sucrose cushion and ultracentrifuged at 30,000 RPM in an SW55 rotor for 1.5 hours at 4° C. After the supernatant was aspirated, viruses were suspended in 500-1000 μl medium and 90 μl of the virus suspension was used to infect 5000 Cf2Th-CD4/CCR5 cells (5 replicates). The cells were incubated for 48 hours and processed as described above. Sensitivity of recombinant viruses to cold inactivation was measured.

SMILES: O=C(N/N=C/c1ccc(O)cc1)Nc1cccc2nsnc12 [Compound 18A]
- IC50 ([1]; Cf2Th-CD4/CCR5 cells, read-out: IC50 for the control A-MLV): 56 µM
- IC50 ([1]; Example 8 table, read-out: IC50 (A-MLV)): 56.5 µM
- IC50 ([2]; HXBc2 (YU2 V3) chimera): 20.2 ± 2.2 µM
- IC50 ([2]; HXBc2 (YU2 V123) chimera): 12.5 ± 1.6 µM
- inhibition of infection (SIVmac239): significantly less potent
- CC50 (CEM #21 cells): 26.6 ± 2.1 µM
- sensitivity of virus to cold inactivation (HIV-1HXBc2): decreased sensitivity to cold inactivation
